# Earlier results in US10512655B1, “Methods and compositions for the topical treatment of peripheral neuropathy” (Jeffrey S. Brooks, Inc., priority 2013, dated 2019).
# Experiments:
# [1] = system: patients with type 1 diabetes; conditions: oral, 300 mg/day over 24 months
# [2] = system: patients suffering from DPN; conditions: topical, KY gel non-occlusive vehicle
Structure (SMILES),effects upon peripheral nerve function or soluble markers of inflammation [1],pain relief [2]
"C/C(=C(\CCOP(=O)(O)O)SC(=O)c1ccccc1)N(C=O)Cc1cnc(C)nc1N [benfotiamine, Benfotiamine]",no significant effects,
CN1CC[C@]23c4c5ccc(O)c4O[C@H]2[C@@H](O)C=C[C@H]3[C@H]1C5 [morphine],,no pain relief
